Source: patent US10906873B2, “Substituted cyclic amides as herbicides” (FMC Corporation, priority 2015, dated 2021)

Assays:
Type in all cases: in vivo
[1] = tested on: foxtail, giant (giant foxtail, Setaria faberii); test: Test A postemergence, foxtail, giant; details: 0 to 100 scale
Excerpt: (§1) Seeds of plant species selected from barnyardgrass (Echinochloa crus-galli), crabgrass (large crabgrass, Digitaria sanguinalis), kochia (Kochia scoparia), ragweed (common ragweed, Ambrosia elatior), morningglory (Ipomoea spp.), velvetleaf (Abutilon theophrasti), ryegrass, It. (Italian ryegrass, Lolium multiflorum), foxtail, giant (giant foxtail, Setaria faberii), wheat (Triticum aestivum), corn (Zea mays), and pigweed (Amaranthus retroflexus), were planted into a blend of loam soil and sand and treated preemergence with a directed soil spray using test chemicals formulated in a non-phytotoxic solvent mixture which included a surfactant. At the same time, plants selected from these crop and weed species and also blackgrass (Alopecurus myosuroides), and galium (catchweed bedstraw, Galium aparine), were planted in pots containing the same blend of loam soil and sand and treated with postemergence applications of test chemicals formulated in the same manner. Plants ranged in height from 2 to 10 cm and were in the one- to two-leaf stage for the postemergence treatment. Treated plants and untreated controls were maintained in a greenhouse for approximately 10 d, after which time all treated plants were compared to untreated controls and visually evaluated for injury. Plant response ratings, summarized in Table A, are based on a 0 to 100 scale where 0 is no effect and 100 is complete control. A dash (-) response means no test result.

[2] = tested on: rice (Oryza sativa); test: Test B flooded paddy test, rice; details: Flood, scale of 0 to 100 where 0 is no effect and 100 is complete control, 13 to 15 d
Description: (§2) Plant species in the flooded paddy test selected from rice (Oryza sativa), sedge, umbrella (small-flower umbrella sedge, Cyperus difformis), ducksalad (Heteranthera limosa), and barnyardgrass (Echinochloa crus-galli) were grown to the 2-leaf stage for testing. At time of treatment, test pots were flooded to 3 cm above the soil surface, treated by application of test compounds directly to the paddy water, and then maintained at that water depth for the duration of the test. Treated plants and controls were maintained in a greenhouse for 13 to 15 d, after which time all species were compared to controls and visually evaluated. Plant response ratings, summarized in Table B, are based on a scale of 0 to 100 where 0 is no effect and 100 is complete control. A dash (-) response means no test result.

[3] = tested on: pigweed (Amaranthus retroflexus); test: Test A preemergence, pigweed; details: 0 to 100 scale
Excerpt: as §1

[4] = tested on: kochia (Kochia scoparia); test: Test A preemergence, kochia; details: 0 to 100 scale
Excerpt: as §1

[5] = tested on: ducksalad (Heteranthera limosa); test: Test B flooded paddy test, ducksalad; details: Flood, scale of 0 to 100 where 0 is no effect and 100 is complete control, 13 to 15 d
Description: as §2

[6] = tested on: galium (catchweed bedstraw, Galium aparine); test: Test A postemergence, galium; details: 0 to 100 scale
Excerpt: as §1

[7] = tested on: ryegrass, It. (Italian ryegrass, Lolium multiflorum); test: Test A preemergence, ryegrass, It.; details: 0 to 100 scale
Excerpt: as §1

[8] = tested on: ryegrass, It. (Italian ryegrass, Lolium multiflorum); test: Test A postemergence, ryegrass, It.; details: 0 to 100 scale
Excerpt: as §1

[9] = tested on: barnyardgrass (Echinochloa crus-galli); test: Test B flooded paddy test, barnyardgrass; details: Flood, scale of 0 to 100 where 0 is no effect and 100 is complete control, 13 to 15 d
Description: as §2

[10] = tested on: blackgrass (Alopecurus myosuroides); test: Test A postemergence, blackgrass; details: 0 to 100 scale
Excerpt: as §1

[11] = tested on: ragweed (common ragweed, Ambrosia elatior); test: Test A preemergence, ragweed; details: 0 to 100 scale
Excerpt: as §1

[12] = tested on: pigweed (Amaranthus retroflexus); test: Test A postemergence, pigweed; details: 0 to 100 scale
Excerpt: as §1

[13] = tested on: barnyardgrass (Echinochloa crus-galli); test: Test A preemergence, barnyardgrass; details: 0 to 100 scale
Excerpt: as §1

[14] = tested on: wheat (Triticum aestivum); test: Test A postemergence, wheat; details: 0 to 100 scale
Excerpt: as §1

[15] = tested on: corn (Zea mays); test: Test A postemergence, corn; details: 0 to 100 scale
Excerpt: as §1

[16] = tested on: ragweed (common ragweed, Ambrosia elatior); test: Test A postemergence, ragweed; details: 0 to 100 scale
Excerpt: as §1

[17] = tested on: sedge, umbrella (small-flower umbrella sedge, Cyperus difformis); test: Test B flooded paddy test, sedge, umbrella; details: Flood, scale of 0 to 100 where 0 is no effect and 100 is complete control, 13 to 15 d
Description: as §2

[18] = tested on: barnyardgrass (Echinochloa crus-galli); test: Test A postemergence, barnyardgrass; details: 0 to 100 scale
Excerpt: as §1

[19] = tested on: kochia (Kochia scoparia); test: Test A postemergence, kochia; details: 0 to 100 scale
Excerpt: as §1

[20] = tested on: foxtail, giant (giant foxtail, Setaria faberii); test: Test A preemergence, foxtail, giant; details: 0 to 100 scale
Excerpt: as §1

| SMILES | Plant response rating, Foxtail, Giant ([1]; 125 g ai/ha) | Plant response rating, Foxtail, Giant ([1]; 500 g ai/ha) | Plant response rating, Pigweed ([3]; 125 g ai/ha) | Plant response rating, Pigweed ([3]; 500 g ai/ha) | Plant response rating, Kochia ([4]; 125 g ai/ha) | Plant response rating, Kochia ([4]; 500 g ai/ha) | Plant response rating, Galium ([6]; 125 g ai/ha) | Plant response rating, Galium ([6]; 500 g ai/ha) | Plant response rating, Ryegrass, It. ([7]; 125 g ai/ha) | Plant response rating, Ryegrass, It. ([7]; 500 g ai/ha) | Plant response rating, Ryegrass, It. ([8]; 125 g ai/ha) | Plant response rating, Ryegrass, It. ([8]; 500 g ai/ha) | Plant response rating, Blackgrass ([10]; 125 g ai/ha) | Plant response rating, Blackgrass ([10]; 500 g ai/ha) | Plant response rating, Ragweed ([11]; 125 g ai/ha) | Plant response rating, Ragweed ([11]; 500 g ai/ha) | Plant response rating, Pigweed ([12]; 125 g ai/ha) | Plant response rating, Pigweed ([12]; 500 g ai/ha) | Plant response rating, Barnyardgrass ([13]; 125 g ai/ha) | Plant response rating, Barnyardgrass ([13]; 500 g ai/ha) | also measured |
| --- | --- | --- | --- | --- | --- | --- | --- | --- | --- | --- | --- | --- | --- | --- | --- | --- | --- | --- | --- | --- | --- |
| Cc1cccc(C#CC2CNC(=O)C2C(=O)Nc2ccccc2F)c1 (centres unmarked) [Compound 21] | 0 | 20 | 0 | 0 | 0 | 0 | 0 | 0 | 0 | 20 | 0 | 0 | 0 | 0 | 0 | 0 | 0 | 0 | 20 | 80 | Plant response rating, Rice ([2]; 250 g ai/ha): 0; Plant response rating, Ducksalad ([5]; 250 g ai/ha): 40; Plant response rating, Barnyardgrass ([9]; 250 g ai/ha): 0; Plant response rating, Wheat ([14]; 125 g ai/ha): 0; Plant response rating, Wheat ([14]; 500 g ai/ha): 0; Plant response rating, Corn ([15]; 125 g ai/ha): 0; Plant response rating, Corn ([15]; 500 g ai/ha): 0; Plant response rating, Ragweed ([16]; 125 g ai/ha): 0; Plant response rating, Ragweed ([16]; 500 g ai/ha): 0; Plant response rating, Sedge, Umbrella ([17]; 250 g ai/ha): 0; Plant response rating, Barnyardgrass ([18]; 125 g ai/ha): 0; Plant response rating, Barnyardgrass ([18]; 500 g ai/ha): 50; Plant response rating, Kochia ([19]; 125 g ai/ha): 0; Plant response rating, Kochia ([19]; 500 g ai/ha): 0; Plant response rating, Foxtail, Giant ([20]; 125 g ai/ha): 0; Plant response rating, Foxtail, Giant ([20]; 500 g ai/ha): 0 |
| O=C1NCC(Cc2cccc(F)c2F)C1C(=O)Nc1cccc(F)c1F (centres unmarked) [Compound 8] | 0 | 0 | 0 | 0 | 0 | 0 | 0 | 0 | 0 | 0 | 0 | 0 | 0 | 0 | 0 | 0 | 0 | 0 | 0 | 0 | Plant response rating, Rice ([2]; 500 g ai/ha): 0; Plant response rating, Ducksalad ([5]; 500 g ai/ha): 0; Plant response rating, Barnyardgrass ([9]; 500 g ai/ha): 0; Plant response rating, Wheat ([14]; 125 g ai/ha): 0; Plant response rating, Wheat ([14]; 500 g ai/ha): 0; Plant response rating, Corn ([15]; 125 g ai/ha): 0; Plant response rating, Corn ([15]; 500 g ai/ha): 0; Plant response rating, Ragweed ([16]; 125 g ai/ha): 0; Plant response rating, Ragweed ([16]; 500 g ai/ha): 0; Plant response rating, Sedge, Umbrella ([17]; 500 g ai/ha): 0; Plant response rating, Barnyardgrass ([18]; 125 g ai/ha): 0; Plant response rating, Barnyardgrass ([18]; 500 g ai/ha): 0; Plant response rating, Kochia ([19]; 125 g ai/ha): 0; Plant response rating, Kochia ([19]; 500 g ai/ha): 0; Plant response rating, Foxtail, Giant ([20]; 125 g ai/ha): 0; Plant response rating, Foxtail, Giant ([20]; 500 g ai/ha): 50 |
| O=C1NCC(Cc2ccc(C(F)(F)F)cc2)C1C(=O)Nc1cccc(F)c1F (centres unmarked) [Compound 7] | 0 | 20 | 0 | 0 | 0 | 0 | 0 | 0 | 0 | 0 | 0 | 0 | 0 | 0 | 0 | 0 | 0 | 0 | 0 | 40 | Plant response rating, Rice ([2]; 500 g ai/ha): 0; Plant response rating, Ducksalad ([5]; 500 g ai/ha): 75; Plant response rating, Barnyardgrass ([9]; 500 g ai/ha): 25; Plant response rating, Wheat ([14]; 125 g ai/ha): 0; Plant response rating, Wheat ([14]; 500 g ai/ha): 0; Plant response rating, Corn ([15]; 125 g ai/ha): 0; Plant response rating, Corn ([15]; 500 g ai/ha): 0; Plant response rating, Ragweed ([16]; 125 g ai/ha): 0; Plant response rating, Ragweed ([16]; 500 g ai/ha): 0; Plant response rating, Sedge, Umbrella ([17]; 500 g ai/ha): 0; Plant response rating, Barnyardgrass ([18]; 125 g ai/ha): 0; Plant response rating, Barnyardgrass ([18]; 500 g ai/ha): 60; Plant response rating, Kochia ([19]; 125 g ai/ha): 0; Plant response rating, Kochia ([19]; 500 g ai/ha): 0; Plant response rating, Foxtail, Giant ([20]; 125 g ai/ha): 0; Plant response rating, Foxtail, Giant ([20]; 500 g ai/ha): 30 |
| O=C1NCC(/C=C/c2cccc(F)c2)C1C(=O)Nc1ccccc1F (centres unmarked) [Compound 24] | 30 | 80 | 0 | 0 | 0 | 20 | 0 | 0 | 0 | 0 | 0 | 0 | 0 | 0 | 0 | 30 | 0 | 0 | 30 | 70 | Plant response rating, Rice ([2]; 250 g ai/ha): 0; Plant response rating, Ducksalad ([5]; 250 g ai/ha): 90; Plant response rating, Barnyardgrass ([9]; 250 g ai/ha): 70; Plant response rating, Wheat ([14]; 125 g ai/ha): 0; Plant response rating, Wheat ([14]; 500 g ai/ha): 0; Plant response rating, Corn ([15]; 125 g ai/ha): 0; Plant response rating, Corn ([15]; 500 g ai/ha): 0; Plant response rating, Ragweed ([16]; 125 g ai/ha): 0; Plant response rating, Ragweed ([16]; 500 g ai/ha): 0; Plant response rating, Sedge, Umbrella ([17]; 250 g ai/ha): 0; Plant response rating, Barnyardgrass ([18]; 125 g ai/ha): 0; Plant response rating, Barnyardgrass ([18]; 500 g ai/ha): 70; Plant response rating, Foxtail, Giant ([20]; 125 g ai/ha): 60; Plant response rating, Foxtail, Giant ([20]; 500 g ai/ha): 90 |
| O=C1NCC(/C=C/c2ccc(F)cc2)C1C(=O)Nc1ccccc1F (centres unmarked) [Compound 27] | 0 | 70 | 0 | 0 | 0 | 40 | 0 | 0 | 0 | 20 | 0 | 0 | 0 | 0 | 0 | 30 | 0 | 20 | 0 | 50 | Plant response rating, Rice ([2]; 250 g ai/ha): 0; Plant response rating, Ducksalad ([5]; 250 g ai/ha): 80; Plant response rating, Barnyardgrass ([9]; 250 g ai/ha): 0; Plant response rating, Wheat ([14]; 125 g ai/ha): 0; Plant response rating, Wheat ([14]; 500 g ai/ha): 0; Plant response rating, Corn ([15]; 125 g ai/ha): 0; Plant response rating, Corn ([15]; 500 g ai/ha): 0; Plant response rating, Ragweed ([16]; 125 g ai/ha): 0; Plant response rating, Ragweed ([16]; 500 g ai/ha): 0; Plant response rating, Sedge, Umbrella ([17]; 250 g ai/ha): 0; Plant response rating, Barnyardgrass ([18]; 125 g ai/ha): 0; Plant response rating, Barnyardgrass ([18]; 500 g ai/ha): 60; Plant response rating, Foxtail, Giant ([20]; 125 g ai/ha): 0; Plant response rating, Foxtail, Giant ([20]; 500 g ai/ha): 60 |
